According to patent US7091183B1 (Boston Medical Center Corporation, priority 1996, dated 2006):
pIC50: −log10 of the molar value. Where no end group is shown, it is not given here.

Legend:
conscious trained rats = test: Postprandial plasma insulin, serum glucose and GLP-1 in trained conscious fed rats; format: in vivo, rat; conditions: for postprandial plasma insulin concentration: chow 30 min
Experimental: Postprandial plasma insulin and serum glucose levels were studied in conscious trained rats. […] To avoid such a response, rats were trained for 10 d before experimentation. They were fasted from 17:00 to 08:00, and 0.9% NaCl (0.3 ml) was injected subcutaneously at 08:00 before feeding. After the injection of 0.9% NaCl, animals were given rat chow for 30 min, after which it was removed. At the end of ten days, the rats were accustomed to the injection and ate quickly (consuming 4–6 g of rat chow within 30 min).
On the day of the experiment, after fasting from 17:00 the night before, trained rats were injected subcutaneously at 08:00 with 0.3 ml of either 0.9% NaCl or ANTGIP (SEQ ID NO:8) (100 nmol/kg). This dose was chosen to approximately the amount of peptide used in the anesthetized animal studies of Example 3. After injection, six of the fasted control rats were killed to obtain baseline serum glucose and insulin levels. ANTGIP (SEQ ID NO:8)- or 0.9% NaCl-treated rats (n=6 in each group) were exposed to chow for 30 min, after which food was withdrawn.

[1] = system: jejunal test segment of anesthetized rats; test: Intestinal glucose absorption from perfused jejunal segment; format: in vivo, rat; conditions: ANTGIP 10 nmol/kg i.v. single injection, 30 minute perfusion
Experimental: Male Sprague-Dawley rats weighing about 200–250 g are fasted overnight and anesthetized using intraperitoneal urethane (about 1.25 g per kg body weight). After midline laparotomy, an about 30-cm segment of jejunum, starting at about 5 cm distal to the ligament of Treitz, is isolated and flushed with approximately 20 ml of about 0.9% NaCl. The jejunal test segments are each perfused twice, initially with control buffer and then once again with control buffer or with the test solution. The test solution consists of Kres-Ringer-bicarbonate buffer containing about 5 mmol/L [^14C]D-glucose, and ^3H-labeled polyethylene glycol is included in the luminal perfusate to correct for fluid movement. The test or control solution is perfused through the jejunal segment without recirculation at a flow rate of about 1.6 ml/min, using a Harvard PHD 2000 syringe pump (Harvard Apparatus, Millis, Mass.). The effluent from the luminal segment is collected at about 5-min intervals for about 30 min. After the initial period of perfusion, the luminal contents in the jejunum are flushed with about 20 ml of about 0.9% NaCl prior to the initiation of the second period of perfusion.
Data points are believed to represent the rate of glucose disappearance from the luminal perfusate corrected for fluid movement. Results are expressed as the mean±SE of five experiments. […]

rat GIP receptor [2] = target: T1, rat GIP receptor (Rattus norvegicus, UniProt P43219); test: Inhibition of GIP (1–42)-stimulated cAMP-dependent β-galactosidase production in LGIPR2 cells; format: cell-based
T1 construct: expressed in transfected cells; host or cells: L cells (LGIPR2), also carrying a VIP-promoter/lacZ cAMP reporter
T1 sequence (P43219 19-455): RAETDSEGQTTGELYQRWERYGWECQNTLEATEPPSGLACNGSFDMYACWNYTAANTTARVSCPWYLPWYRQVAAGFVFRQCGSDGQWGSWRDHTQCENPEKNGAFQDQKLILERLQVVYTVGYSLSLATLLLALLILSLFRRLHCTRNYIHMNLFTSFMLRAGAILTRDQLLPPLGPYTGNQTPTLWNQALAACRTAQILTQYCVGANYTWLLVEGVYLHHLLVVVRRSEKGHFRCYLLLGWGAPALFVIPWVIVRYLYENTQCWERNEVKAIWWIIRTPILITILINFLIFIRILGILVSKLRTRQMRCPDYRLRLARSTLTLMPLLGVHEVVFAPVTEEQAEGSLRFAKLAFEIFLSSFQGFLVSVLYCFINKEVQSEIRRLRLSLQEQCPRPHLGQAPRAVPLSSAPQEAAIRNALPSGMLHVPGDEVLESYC
Experimental: LGIPR2 cells are stably transfected with a cAMP-dependent promoter from the VIP gene fused to the bacterial lac Z gene. When intracellular cAMP increases within these cells, lac Z gene transcription is activated, resulting in the accumulation of its product, β-galactosidase. The measurement of β-galactosidase in this system provided a convenient, inexpensive, and nonradioactive method for detecting changes in the levels of intracellular cAMP.
LGIPR2 cells were grown in Dulbecco's Modified Eagle's Medium (DMEM) containing 4.5 g/L of glucose and 10% fetal calf serum. For each assay, 10^5 cells/well were seeded onto 24-well plates. After incubation overnight, peptides were added in various concentrations to the wells in the absence of 3-isobutyl-methylxanthine (IBMX) for 4 h, at which time maximal stimulation of β-galactosidase was determined. The medium was then removed and wells rinsed once with phosphate-buffered saline (PBS). The plates were then blotted briefly and frozen overnight at −70° C., and, after the addition of chlorophenol red-β-D-galactopyranoside, accumulated β-galactosidase was detected using a calorimetric assay, as described previously (Usdin, et al., 1993, Endocrinology, 133:2861–2870).
Values are expressed as the mean±SE of quadruplicate measurements.

fasted anesthetized rats = test: Intravenous infusion of peptides in fasting anesthetized rats, plasma insulin; format: in vivo, rat
rat GIP receptor [3] = target: T1, rat GIP receptor; test: cAMP-dependent β-galactosidase production in LGIPR2 cells (agonist activity); format: cell-based
Excerpt: LGIPR2 cells are stably transfected with a cAMP-dependent promoter from the VIP gene fused to the bacterial lac Z gene. When intracellular cAMP increases within these cells, lac Z gene transcription is activated, resulting in the accumulation of its product, β-galactosidase. The measurement of β-galactosidase in this system provided a convenient, inexpensive, and nonradioactive method for detecting changes in the levels of intracellular cAMP. […] The medium was then removed and wells rinsed once with phosphate-buffered saline (PBS). The plates were then blotted briefly and frozen overnight at −70° C., and, after the addition of chlorophenol red-β-D-galactopyranoside, accumulated β-galactosidase was detected using a calorimetric assay, as described previously (Usdin, et al., 1993, Endocrinology, 133:2861–2870). […] Natl. Acad. Sci. USA, 90:1992–1996).

rats = test: Oral glucose tolerance test in rats; format: in vivo, rat; conditions: ANTGIP 300 ng/kg i.p., glucose 1 g per kg by gavage
Experimental: Oral glucose tolerance tests were performed on rats injected intraperitoneally with ANTGIP (SEQ ID NO:8) (300 ng/kg) or 0.9% saline solution. After the intraperitoneal injection of 0.9% NaCl or ANTGIP (SEQ ID NO:8), an oral glucose tolerance test was performed. The test was done by administering a 40% glucose solution by oral gavage at a dose of 1 g per kg. The volume administered to each rat was approximately 0.5 ml. Blood was obtained at various time points for subsequent measurement of plasma insulin and glucose levels.

[4] = 20 min, ANTGIP 100 nmol/kg s.c.
[5] = 40 min, ANTGIP 100 nmol/kg s.c.

ISDYSIAMDKIRQQDFVNWLLAQK-NH2 [ANTGIP, GIP (7–30)-NH2]
postprandial serum GLP-1 level (conscious trained rats; [4]): 290 ± 10 pg/mL | postprandial plasma insulin concentration (conscious trained rats; [4]): 25.3±4.7 μIU/ml | postprandial serum GLP-1 concentration (conscious trained rats; [5]): 330±20 pg/mgl | postprandial plasma insulin concentration (conscious trained rats; [5]): 27.1±2.6 μIU/ml | postprandial serum glucose concentration versus saline (conscious trained rats; ANTGIP 100 nmol/kg s.c.): similar | decrease in postprandial insulin release (conscious trained rats; chow-fed rats): 72% | absorption of D-glucose from the jejunal test segment [1]: significantly reduce | pIC50 (rat GIP receptor [2]): 7.00 | antagonism of the cAMP stimulatory effect of GIP (1–42) (rat GIP receptor [2]; 10^−8 M GIP (1–42) plus fragment at 10^−8 M or 10^−6 M, 4 h): attenuate the cAMP stimulatory effects | change in the insulin response to GLP-1, glucose or arginine (fasted anesthetized rats; ANTGIP 100 nmol/kg concomitantly): No significant change | effect on the insulinotropic properties of GIP (fasted anesthetized rats; ANTGIP 100 nmol/kg concomitantly with GIP 1.5 nmol/kg): completely abolished | effect on insulin secretion, alone (fasted anesthetized rats; ANTGIP infusion alone, 30 min): had no effect on insulin secretion | stimulation of cAMP-dependent β-galactosidase production (versus GIP (1–42) / above control levels) (rat GIP receptor [3]; 10^−8 M peptide, 4 h): none | increase in cAMP-dependent β-galactosidase level (rat GIP receptor [3]; concentration as high as 10^−4 M): did not stimulate a detectable increase | plasma glucose after oral glucose versus control rats (rats): diminished at all time points | plasma insulin levels after oral glucose (rats): reduced plasma insulin levels
